Measured values published in PMC11839907, “Deciphering the tight metabolite‐level regulation of glucose‐1‐phosphate adenylyltransferase (GlgC) for glycogen synthesis in cyanobacteria” (The Febs Journal, 2024).
Like-named read-outs stand apart in the source and are kept apart here. Each block holds one compound with its values, some of them ahead of it.

Legend:
[1] = biological target: T1, GlgC (Synechocystis sp. PCC 6803, UniProt P52415); assay: continuous GlgC-GlgA1 / pyruvate kinase / LDH coupled assay, A340; type: biochemical
T1 construct: shorter variant lacking first 10 residues of P52414, starts VKRVLAIILGG (primer 3); N-terminal His-tag (pET28a), E. coli Rosetta-gami (DE3); active as tetramer
T1 sequence (P52415 11-439): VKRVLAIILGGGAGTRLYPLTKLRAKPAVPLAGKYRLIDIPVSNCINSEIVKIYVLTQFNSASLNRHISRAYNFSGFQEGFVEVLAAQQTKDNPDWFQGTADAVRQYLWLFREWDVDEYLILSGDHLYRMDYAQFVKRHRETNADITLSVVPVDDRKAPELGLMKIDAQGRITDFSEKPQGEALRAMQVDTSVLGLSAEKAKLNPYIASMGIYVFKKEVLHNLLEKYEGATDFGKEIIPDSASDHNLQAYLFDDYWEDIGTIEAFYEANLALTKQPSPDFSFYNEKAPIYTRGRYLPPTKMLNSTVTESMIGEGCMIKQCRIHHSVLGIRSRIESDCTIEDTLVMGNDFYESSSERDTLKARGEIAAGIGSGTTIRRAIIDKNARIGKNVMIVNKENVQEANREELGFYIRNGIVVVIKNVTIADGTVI

[2] = biological target: T1, GlgC; assay: as above; type: biochemical; settings: read-out: 3-PGA (mM) / 0.00

EC50 [1]: 430 µM
SMILES: O=C(O)[C@H](O)COP(=O)(O)O [3-PGA]

EC50 ([1]; activator, no 3-PGA, 0.25 mM Glc-1P, 2 mM ATP, 12 mM MgCl2, pH 8.0, 30 °C): 2300 µM
SMILES: O=P(O)(O)OC[C@H]1OC(O)(CO)[C@@H](O)[C@@H]1O (stereo partly drawn) [Fru-6P]

IC50 [2]: 0.42 mM
SMILES: O=P(O)(O)O [Pi]
